Assay results from patent US20250152580A1, “METHODS FOR TREATING IMMUNE DISEASES” (Ascentage Pharma (Suzhou) co., Ltd., priority 2022, published 2025).
Entries after “also recorded” stand apart in the source; their conditions may differ.

Experiments:
[1] = tested on: OVA induced asthma model; assay: OVA (ovalbumin) induced asthma model in Balb/cA mice; assay type: in vivo; settings: for pathological score in lung tissues (H&E): vehicle 4.08±0.23
Source text: Ovalbumin (OVA)-sensitized and challenged BALB/c mice are widely used as an asthma model and are characterized by high levels of serum IgE, airway inflammation, epithelial hypertrophy, goblet cell hyperplasia, and AHR, which are similar to the features observed in human allergic asthma.
Female Balb/cA mice (8 weeks old) were obtained from Shanghai Jihui Laboratory Animal Co. Ltd. Animals were housed and handled in a temperature-controlled environment with a 12-h light/12-h dark cycle. A total of 66 mice were assigned to 6 groups by randomization based on body weight.
Mice in Group 2 are intraperitoneally immunized with OVA (25 μg) emulsified in Imject alum (2.0 mg of Al[OH]3) on day 1. During this sensitization phase, the mice produce anti-OVA IgE antibodies, which bind IgE receptors on mast cells. After this sensitization, the mice are intratracheally challenged with OVA from day 8 today 14, resulting in OVA cross-linked IgE on mast cells and leading to degranulating mast cells. Mice then develop clinical features of asthma. The mice in the Group 1 normal control group were sensitized and challenged with […] (without OVA).
Mice in Group 1 and Group 2 were treated with vehicle for 7 days (po, qd, from day 8 to day 14). Mice in Group 3 were treated with 50 mg/kg Cpd. X for 8 days (iv, biw, day 1 and day 4). Mice in Group 4 were treated with 30 mg/kg Cpd. 4 for 7 days (po, qd, from day 8 to day 14). Mice in Group 5 were treated with 100 mg/kg Cpd. 4 for 7 days (po, qd, from day 8 to day 14). 3 mg/kg dexamethasone was used as positive control which was orally administered to mice in Group 6 for 7 days (qd, from day 8 to day 14). The protocols and procedures involving the care and use of animals were approved by the Institutional Animal Care and Use Committee (IACUC) at KCI (Suzhou, China).
Airway responsiveness was determined invasively based on lung resistance.
After challenge with aerosolized methacholine. Briefly, mice were challenged with methacholine aerosol in increasing concentrations (0, 6.25, 12.5, and 25 mg/mL in saline) on day 13 by using the noninvasive pulmonary function instrument. Data on lung resistance were continuously collected, and mean values were selected to express changes in airway function and regarded as one form of inflammation expression. Data are presented as the airway stenosis index (penh).
Twenty-four hours after the final OVA challenge (on day 15), mice were killed, and BAL cells were collected by means of slow injection of ice-cold PBS into the trachea, which was repeated 3 times. Numbers of cells in BAL fluid were counted with a chamber. Number of eosinophils in a total of 100 cells was counted under a microscope. Results are expressed as percentage of eosinophils of BAL fluid.
Twenty-four hours after the final OVA challenge (on day 15), mice were killed, and the serum was collected. The OVA-specific IgE levels were measured with the method of enzyme linked immunosorbent assay (ELISA) according to manufacturer protocol.
Twenty-four hours after the final OVA challenge (on day 15), mice were killed, and the lung tissue samples were collected and fixed in 4% paraformaldehyde. Then, they were embedded in paraffin and cut into […] sections for histopathological analysis. Lung sections were then stained with hematoxylin and eosin (H&E) to calculate the inflammatory changes. The histopathological score was evaluated microscopically in a blinded manner. Five arbitrarily selected fields of each mouse were photographed with an optical microscope and the images were determined and analyzed in detail. […]

[2] = tested on: IL-23 induced psoriasis model; assay: IL-23 induced psoriasis model in C57BL/6 mice; assay type: in vivo; settings: Cpd. 4 30 mg/kg po qd day 1-14, compared with Vehicle (0.44 mm day 14)
Source text: IL-23 stimulates and promotes differentiation of Th17 cells. IL-23 is a heterodimeric cytokine with two subunits. It drives the Th17 response by its binding and signaling through its receptor subunits. When the IL-23R is activated, it promotes the development of Th17 cells and the resulting production of cytokines such as IL-17A, IL-17F, and IL-22, all which are involved in mediating psoriasiform changes.
C57BL/6 mice (7-8 weeks old) were obtained from Vital River Laboratory Animal Technology Co., Ltd. Animals were housed and handled in a temperature-controlled environment with a 12-h light/12-h dark cycle. A total of 40 mice were assigned to 4 groups by randomization based on body weight.
The first day of IL-23 injection is considered as Day 1. Intradermal injection of 20 μL PBS containing 500 ng recombinant mouse IL-23 into the right ear of anesthetized mice using a 30-gauge needle every other day for 14 days (Day 1, Day 3, Day 5, Day 7, Day 9, Day 11, Day 13), 7 times in total. The G1 normal control group intradermal injected with 20 μL PBS.
Mice in Group 1 and Group 2 were treated with vehicle for 14 days (po, qd, from day 1 to day 14). Mice in Group 3 were treated with 30 mg/kg Cpd. 4 for 14 days (po, qd, from day 1 to day 14). […]
Ear thickness of mice was measured in Day 1, 3, 5, 7, 9, 11, 13 and Day 14. […]

[3] = day 15, Cpd. 4 30 and 100 mg/kg po qd, Cpd. X 50 mg/kg iv biw, dexamethasone 3 mg/kg po qd, compared with Vehicle

SMILES: O=C(NS(=O)(=O)c1ccc(NC[C@H]2COCCO2)c([N+](=O)[O-])c1)c1ccc(N2CCN(CC3=C(c4ccc(Cl)cc4)CC4(CCC4)CC3)CC2)cc1Oc1cnc2[nH]ccc2c1 [Cpd. 4, (S)-N-((4-(((1,4-dioxan-2-yl)methyl)amino)-3-nitrophenyl)sulfonyl)-2-((1H-pyrrolo[2,3-b]pyridin-5-yl)oxy)-4-(4-((6-(4-chlorophenyl)spiro[3.5]non-6-en-7-yl)methyl)piperazin-1-yl)benzamide]
- pathological score in lung tissues (H&E) ([1]; 30 mg/kg po qd day 8-14, day 15): 2.64±0.08
- pathological score in lung tissues (H&E) ([1]; 100 mg/kg po qd day 8-14, day 15): 2.66±0.17
- pathological score in lung tissues (in words) ([1]; Cpd. 4 and Cpd. X, compared with Vehicle): significantly ameliorated
- percentage of eosinophils in BALF [1, 3]: downregulated markedly; also recorded: significantly downregulated
- serum OVA-specific IgE (ELISA) [1, 3]: significantly reduced; also recorded: significantly decreased
- airway stenosis index (penh), airway hyper-responsiveness (AHR) ([1]; methacholine challenge day 13, Cpd. 4 30 and 100 mg/kg po qd day 8-14, Cpd. X 50 mg/kg iv biw, dexamethasone 3 mg/kg po qd, compared with Vehicle): significant inhibitory activity; also recorded: significantly reduced
- ear thickness [2]: significantly reducing the ear thickness; also recorded: significantly reduced
